In paper PMC5717258, “Bioaccumulation of pharmaceuticals and personal care product chemicals in fish exposed to wastewater effluent in an urban wetland” (Scientific Reports, 2017):

Experiments:
[1] = design: method as in US EPA Chemistry Dashboard; settings: ref US EPA Chemistry Dashboard; cited from earlier work
in vivo = settings: goldfish (Carassius auratus), in vivo
In short: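 Pooled caged-goldfish plasma, wild-fish plasma (2.3–2.5 g) and water samples were spiked with isotope-labelled surrogates, then extracted (acetonitrile sonication for plasma; pH-adjusted water) and cleaned up by HLB SPE. PPCPs were quantified by LC/ESI-MS/MS using isotope dilution. Non-detects were set to ½ DL when the analyte was detected in ≥2 samples.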

[2] = Plasma bioaccumulation factor (BAFP), goldfish; format: in vivo, goldfish (Carassius auratus)
In short: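 BAFP in goldfish was calculated as plasma concentration (ng/g × 1000) divided by water concentration (ng/L).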

[3] = design: method as in Moreno-González et al. 17; settings: mean ± SD; ref Moreno-González et al. 17; cited from earlier work
[4] = Plasma bioaccumulation factor (BAFP), carp; format: in vivo, carp (Cyprinus carpio)
Method: Bioaccumulation factor (BAFP) was calculated as concentration in fish plasma (ng/g × 1000) divided by concentration in water (ng/L). Two widely used modeling approaches for predicting organic contaminant bioaccumulation were assessed: the BCF-BAF model for whole body BAFs[53] and the fish-plasma concentration calculation of Huggett et al.[35] modified by Berninger et al.[54]. The latter involves estimating an octanol-water partition coefficient (Kow) adjusted for fraction ionized (log D), using the pKa value to adjust log Kow[54] taking into account the pH of CPM waters. Further information on the calculation of log D, blood-water partitioning (PBW), and plasma concentrations (FPC) is given in the SI.

[5] = human, ref Schulz et al.[56], cited from earlier work
[6] = conc in fish plasma/conc in water
[7] = range based on range of plasma concentrations

Compound: COc1ccc(C(CN(C)C)C2(O)CCCCC2)cc1 (stereo not shown) [Venlafaxine]
- log Kow [1]: 3.28
- concentration at 21 days (in vivo; caged goldfish plasma, range of concentrations, Cootes Paradise Marsh, range): 0.04 to 0.26 ng/g
- concentration at 21 days (in vivo; plasma concentration, CPM1 caged, CPM1, 07-2014, pooled plasma, wet weight): 0.165 ng/g
- concentration at 21 days (in vivo; plasma concentration, CPM2 caged, CPM2, 07-2014, pooled plasma, wet weight): 0.039 ng/g
- concentration at 21 days (in vivo; plasma concentration, CPM3 caged, CPM3, 07-2014, pooled plasma, wet weight): 0.041 ng/g
- concentration at 21 days (in vivo; plasma concentration, JH caged, Jordan Harbour reference site, 07-2014, pooled plasma, wet weight): < 0.08 ng/g
- Cootes carp plasma, range of concentrations (Cootes Paradise Marsh, range): 0.04 to 0.27 ng/g
- wild goldfish plasma, range of concentrations (Cootes Paradise Marsh, range): 0.04 to 0.17 ng/g
- plasma concentration, CPM-C 01 (Cootes carp 01, 2011, male, wet weight): 0.042 ng/g
- plasma concentration, CPM-C 2 (Cootes carp 2, Sep 27, 2011, male, wet weight): 0.086 ng/g
- plasma concentration, CPM-C 10 (Cootes carp 10, Sep 28, 2011, female, wet weight): 0.061 ng/g
- plasma concentration, CPM-C 13 (Cootes carp 13, Sep 28, 2011, female, wet weight): 0.063 ng/g
- plasma concentration, CPM-C 20 (Cootes carp 20, 2011, male, wet weight): 0.268 ng/g
- plasma concentration, CPM-C 36 (Cootes carp 36, Oct 3, 2011, female, wet weight): 0.057 ng/g
- plasma concentration, JH-C 54 (Jordan Harbour carp 54, Nov 7, 2011, male, wet weight): 0.042 ng/g
- plasma concentration, JH-C 73 (Jordan Harbour carp 73, Nov 7, 2011, female, wet weight): 0.041 ng/g
- plasma concentration, JH-C 74 (Jordan Harbour carp 74, Nov 7, 2011, male, wet weight): 0.043 ng/g
- plasma concentration, JH-C 75 (Jordan Harbour carp 75, Nov 7, 2011, female, wet weight): 0.060 ng/g
- plasma concentration, JH-C 82 (Jordan Harbour carp 82, Nov 7, 2011, female, wet weight): 0.040 ng/g
- plasma concentration, carp, this study (mean) (Table S8): 0.10 ng/g wet weight or ng/mL for plasma
- plasma concentration, goldfish, this study (mean) (Table S8): 0.11 ng/g wet weight or ng/mL for plasma
- plasma concentration, CPM wild-01 (wild goldfish sample 01, 2012, wet weight): 0.039 ng/g
- plasma concentration, CPM wild-02 (wild goldfish sample 02, 2012, wet weight): 0.258 ng/g
- plasma concentration, CPM wild-03 (wild goldfish sample 03, 2012, wet weight): 0.042 ng/g
- BAFP, CPM1 goldfish caged ([2]; CPM1): 3 L/kg
- BAFP, CPM3 goldfish caged ([2]; CPM3): 52 L/kg
- BAFP at CPM3, wild goldfish, average [2, 6]: 14 L/kg
- BAFP at CPM3, wild goldfish, range [2, 7]: 5 to 31 L/kg
- liver & muscle concentration, mullet [3]: 0.68 ± 1.3 ng/g wet weight or ng/mL for plasma
- BAFP at JH, carp, average ([4]; Jordan Harbour): 64 L/kg
- BAFP at CPM3, carp, average [4, 6]: 12 L/kg
- BAFP at CPM3, carp, range [4, 7]: 5 to 32 L/kg
- Therapeutic "normal" blood-plasma/serum concentration ([5]; converted from µg/mL): 100 to 400 ng/mL
- toxic dose (toxic blood-plasma/serum concentration) [5]: 1000 to 1500 ng/mL
